Data taken from PubChem BioAssay (NCI).
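Test compounds were applied to cells in 96-well plates for 48 hours at 5 doses. GI50 is the concentration that inhibits growth by half. TGI is the concentration that stops growth completely.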

Tests used:
Assay in all cases: inhibition of tumour cell growth, NCI panel, 48 h
MOLT-4 leukemia = system: MOLT-4 leukemia
MALME-3M melanoma = system: MALME-3M melanoma
T-47D breast = system: T-47D breast
IGROV1 ovarian = system: IGROV1 ovarian
HT29 colon = system: HT29 colon
786-0 renal = system: 786-0 renal
HOP-62 NSCLC = system: HOP-62 NSCLC
NCI-H522 lung = system: NCI-H522 lung
TK-10 renal = system: TK-10 renal
NCI/ADR-RES ovarian = system: NCI/ADR-RES ovarian
COLO 205 colon = system: COLO 205 colon
MDA-MB-231 breast = system: MDA-MB-231 breast
RPMI-8226 leukemia = system: RPMI-8226 leukemia
UACC-62 melanoma = system: UACC-62 melanoma
HCC-2998 colon = system: HCC-2998 colon
SF-295 CNS = system: SF-295 CNS
RXF 393 renal = system: RXF 393 renal
OVCAR-5 ovarian = system: OVCAR-5 ovarian
NCI-H23 lung = system: NCI-H23 lung
KM12 colon = system: KM12 colon
ACHN renal = system: ACHN renal
SNB-75 CNS = system: SNB-75 CNS
HL-60(TB) leukemia = system: HL-60(TB) leukemia
HCT-116 colon = system: HCT-116 colon
SNB-19 CNS = system: SNB-19 CNS
NCI-H226 lung = system: NCI-H226 lung
HS 578T breast = system: HS 578T breast
PC-3 prostate = system: PC-3 prostate
U251 CNS = system: U251 CNS
OVCAR-3 ovarian = system: OVCAR-3 ovarian
EKVX NSCLC = system: EKVX NSCLC
SK-MEL-5 melanoma = system: SK-MEL-5 melanoma
CAKI-1 renal = system: CAKI-1 renal
BT-549 breast = system: BT-549 breast
NCI-H460 lung = system: NCI-H460 lung
SK-OV-3 ovarian = system: SK-OV-3 ovarian
MDA-MB-435 = system: MDA-MB-435
MCF7 breast = system: MCF7 breast
SK-MEL-28 melanoma = system: SK-MEL-28 melanoma
UO-31 renal = system: UO-31 renal
SW-620 colon = system: SW-620 colon
SF-268 CNS = system: SF-268 CNS
CCRF-CEM leukemia = system: CCRF-CEM leukemia
M14 melanoma = system: M14 melanoma
UACC-257 melanoma = system: UACC-257 melanoma
DU-145 prostate = system: DU-145 prostate
A549 NSCLC = system: A549 NSCLC
LOX IMVI melanoma = system: LOX IMVI melanoma
A498 renal = system: A498 renal
SR leukemia = system: SR leukemia
SK-MEL-2 melanoma = system: SK-MEL-2 melanoma
HCT-15 colon = system: HCT-15 colon
SN12C renal = system: SN12C renal
OVCAR-4 ovarian = system: OVCAR-4 ovarian
SF-539 CNS = system: SF-539 CNS
HOP-92 NSCLC = system: HOP-92 NSCLC
OVCAR-8 ovarian = system: OVCAR-8 ovarian
K-562 leukemia = system: K-562 leukemia

O=C(Nc1cccc(Cl)c1)Nc1nc2ccc([N+](=O)[O-])cc2s1
GI50 (MOLT-4 leukemia): 375 nM
TGI (MOLT-4 leukemia): 2340 nM
GI50 (MALME-3M melanoma): 367 nM
TGI (MALME-3M melanoma): 1630 nM
GI50 (T-47D breast): 307 nM
TGI (T-47D breast): 1850 nM
GI50 (IGROV1 ovarian): 617 nM
TGI (IGROV1 ovarian): 3880 nM
GI50 (HT29 colon): 2820 nM
TGI (HT29 colon): 10700 nM
GI50 (786-0 renal): 409 nM
TGI (786-0 renal): 1690 nM
GI50 (HOP-62 NSCLC): 911 nM
TGI (HOP-62 NSCLC): 3550 nM
GI50 (NCI-H522 lung): 331 nM
TGI (NCI-H522 lung): 2010 nM
GI50 (TK-10 renal): 808 nM
TGI (TK-10 renal): 5490 nM
GI50 (NCI/ADR-RES ovarian): 403 nM
TGI (NCI/ADR-RES ovarian): 1820 nM
GI50 (COLO 205 colon): 1260 nM
TGI (COLO 205 colon): 2840 nM
GI50 (MDA-MB-231 breast): 676 nM
TGI (MDA-MB-231 breast): 3050 nM
GI50 (RPMI-8226 leukemia): 263 nM
TGI (RPMI-8226 leukemia): 632 nM
GI50 (UACC-62 melanoma): 359 nM
TGI (UACC-62 melanoma): 1460 nM
GI50 (HCC-2998 colon): 465 nM
TGI (HCC-2998 colon): 2210 nM
GI50 (SF-295 CNS): 527 nM
TGI (SF-295 CNS): 1970 nM
GI50 (RXF 393 renal): 458 nM
TGI (RXF 393 renal): 1790 nM
GI50 (OVCAR-5 ovarian): 1790 nM
TGI (OVCAR-5 ovarian): 6830 nM
GI50 (NCI-H23 lung): 304 nM
TGI (NCI-H23 lung): 989 nM
GI50 (KM12 colon): 466 nM
TGI (KM12 colon): 2120 nM
GI50 (ACHN renal): 525 nM
TGI (ACHN renal): 2560 nM
GI50 (SNB-75 CNS): 539 nM
TGI (SNB-75 CNS): 3170 nM
GI50 (HL-60(TB) leukemia): 365 nM
TGI (HL-60(TB) leukemia): 1510 nM
GI50 (HCT-116 colon): 330 nM
TGI (HCT-116 colon): 1190 nM
GI50 (SNB-19 CNS): 531 nM
TGI (SNB-19 CNS): 4280 nM
GI50 (NCI-H226 lung): 623 nM
TGI (NCI-H226 lung): 2500 nM
GI50 (HS 578T breast): 675 nM
TGI (HS 578T breast): 3340 nM
GI50 (PC-3 prostate): 317 nM
TGI (PC-3 prostate): 1190 nM
GI50 (U251 CNS): 452 nM
TGI (U251 CNS): 3550 nM
GI50 (OVCAR-3 ovarian): 402 nM
TGI (OVCAR-3 ovarian): 1750 nM
GI50 (EKVX NSCLC): 558 nM
TGI (EKVX NSCLC): 3540 nM
GI50 (SK-MEL-5 melanoma): 315 nM
TGI (SK-MEL-5 melanoma): 1100 nM
GI50 (CAKI-1 renal): 483 nM
TGI (CAKI-1 renal): 2240 nM
GI50 (BT-549 breast): 415 nM
TGI (BT-549 breast): 1400 nM
GI50 (NCI-H460 lung): 398 nM
TGI (NCI-H460 lung): 1970 nM
GI50 (SK-OV-3 ovarian): 736 nM
TGI (SK-OV-3 ovarian): 5170 nM
GI50 (MDA-MB-435): 524 nM
TGI (MDA-MB-435): 2290 nM
GI50 (MCF7 breast): 452 nM
TGI (MCF7 breast): 3050 nM
GI50 (SK-MEL-28 melanoma): 423 nM
TGI (SK-MEL-28 melanoma): 1670 nM
GI50 (UO-31 renal): 388 nM
TGI (UO-31 renal): 1790 nM
GI50 (SW-620 colon): 490 nM
TGI (SW-620 colon): 2390 nM
GI50 (SF-268 CNS): 685 nM
TGI (SF-268 CNS): 3550 nM
GI50 (CCRF-CEM leukemia): 375 nM
TGI (CCRF-CEM leukemia): 3820 nM
GI50 (M14 melanoma): 660 nM
TGI (M14 melanoma): 2540 nM
GI50 (UACC-257 melanoma): 532 nM
TGI (UACC-257 melanoma): 3490 nM
GI50 (DU-145 prostate): 693 nM
TGI (DU-145 prostate): 8470 nM
GI50 (A549 NSCLC): 779 nM
TGI (A549 NSCLC): 7460 nM
GI50 (LOX IMVI melanoma): 436 nM
TGI (LOX IMVI melanoma): 1630 nM
GI50 (A498 renal): 244 nM
TGI (A498 renal): 973 nM
GI50 (SR leukemia): 350 nM
TGI (SR leukemia): 1910 nM
GI50 (SK-MEL-2 melanoma): 434 nM
TGI (SK-MEL-2 melanoma): 2030 nM
GI50 (HCT-15 colon): 466 nM
TGI (HCT-15 colon): 2030 nM
GI50 (SN12C renal): 447 nM
TGI (SN12C renal): 2520 nM
GI50 (OVCAR-4 ovarian): 429 nM
TGI (OVCAR-4 ovarian): 2930 nM
GI50 (SF-539 CNS): 603 nM
TGI (SF-539 CNS): 2170 nM
GI50 (HOP-92 NSCLC): 145 nM
TGI (HOP-92 NSCLC): 454 nM
GI50 (OVCAR-8 ovarian): 1120 nM
TGI (OVCAR-8 ovarian): 11200 nM
GI50 (K-562 leukemia): 355 nM
TGI (K-562 leukemia): 1420 nM
